Measurements reported in US8420144B2, “Kokumi-imparting agent, method of using, and compositions containing same” (Ajinomoto Co., Inc., priority 2005, dated 2013).

Columns and labels:
Type in all cases: in vivo, human
[1] = Quantitative sensory evaluation test of activity on basic tastes (umami, sweet, salty, sour standards); conditions: n=12, 0 control, 1 fairly intense, 2 intense; for Sour taste (intensity of activity on basic tastes): citric acid 0.05 g/dl standard; for Salty taste (intensity of activity on basic tastes): sodium chloride 0.7 g/dl standard; for Umami (intensity of activity on basic tastes): sodium glutamate 0.2 g/dl standard; for Sweet taste (intensity of activity on basic tastes): sucrose 5 g/dl standard
Description: The intensity of the activity on basic tastes of each peptide having confirmed calcium receptor activation activity was measured by a quantitative sensory evaluation test, performed as follows: Samples of either γ-Glu-Cys-Gly (glutathione) or γ-Glu-Val-Gly were added to distilled water (0.0001 to 1 g/dl) containing sodium glutamate (0.2 g/dl) for the umami standard, sucrose (5 g/dl) for the sweet taste standard, sodium chloride (0.7 g/dl) or the salty taste standard, or citric acid (0.05 g/dl) for the sour taste standard, and the intensity of the activity on basic tastes was measured for each sample.
Sample solutions that became acidic after dissolution of the samples with respect to the standard solutions without the samples were adjusted with NaOH to pH not lower or higher by 0.2 than pH of the standard solutions before use. Sensory evaluation scores were used to evaluate the intensity as follows: 0 points for the control sample, 1 point for fairly intense activity as compared to the control, and 2 points for intense activity as compared to the control, and the test was performed with n=12.

[2] = Quantitative sensory evaluation test: imparting kokumi to Japanese clear soup; conditions: n=12, 0 control, 3 intense, 5 extremely intense
Description: The intensity of activity for imparting kokumi to clear soup of each peptide having confirmed calcium receptor activation activity was measured by a quantitative sensory evaluation test, performed as follows: Japanese clear soup was prepared by adding 0.5 g/dl of soy sauce and 0.6 g/dl of sodium chloride to bonito kelp stock, obtained by adding 5 g of dried kelp to 3 L of water, heating the water, adding 25 g of dried bonito flakes just before boiling, and then filtering the water containing kelp and bonito flakes. To this clear soup, samples of either γ-Glu-Cys-Gly (glutathione) or γ-Glu-Val-Gly was added to a concentration of 0.0001 to 1 g/dl, and the intensity of the kokumi-imparting activity was measured for each sample. The clear soup with the samples that became acidic after dissolution of the samples with respect to the clear soup without the samples were adjusted with NaOH to pH not lower or higher by 0.2 than pH of the clear soup without the samples before use. Sensory evaluation scores were used to evaluate as follows: 0 points for the control sample, 3 points for intense activity as compared to the control, and 5 points for extremely intense activity as compared to the control, and the test was performed with n=12.

[3] = Quantitative sensory evaluation test: imparting kokumi to corn soup; conditions: n=12, 0 control, 3 intense, 5 extremely intense
Description: The intensity of the activity for imparting kokumi to corn soup of each peptide having confirmed calcium receptor activation activity was measured by a quantitative sensory evaluation test, performed as follows: to commercially available corn soup, samples of either γ-Glu-Cys-Gly (glutathione) or γ-Glu-Val-Gly were added to a concentration of 0.0001 to 1 g/dl, and the intensity of the kokumi-imparting activity was measured for each sample. The corn soup with the samples that became acidic after dissolution of the samples with respect to the corn soup without the samples was adjusted with NaOH to pH not lower or higher by 0.2 than pH of the corn soup without the samples before use. Sensory evaluation scores were used to evaluate as follows: 0 points for the control sample, 3 points for intense activity as compared to the control, and 5 points for extremely intense activity as compared to the control, and the test was performed with n=12.

[4] = Quantitative sensory evaluation test: kokumi-imparting activity of peptides combined with known calcium receptor activators or additives; conditions: for Intensity of kokumi: Aftertaste / Intensity of kokumi: First and middle taste: alone, n=12, 0 control, 3 intense, 6 extremely intense
Description: The intensity of the kokumi-imparting activity of each peptide having confirmed calcium receptor activation activity and a known calcium receptor activator used in combination was measured by a quantitative sensory evaluation test, performed as follows: Samples of γ-Glu-Cys-Gly (glutathione) or γ-Glu-Val-Gly (0.0001 to 1 g/dl), or these samples combined with a calcium receptor activator such as calcium lactate, protamine or polylysine, or GABA (addition concentration: 0.0001 to 1 g/dl) were added to distilled water containing sodium glutamate (0.05 g/dl), inosine monophosphate (0.05 g/dl), and sodium chloride (0.5 g/dl), and the intensity of the kokumi-imparting activity was measured. Sample solutions that became acidic after dissolution of the samples were adjusted to pH 6.8 to 7.2 with NaOH before use. Sensory evaluation scores were used to evaluate as follows: 0 points for the control sample, 3 points for intense activity (as intensity of 0.05 g/dl γ-Glu-Cys-Gly and 0.005 g/dl γ-Glu-Val-Gly), and 6 points for extremely intense activity (as twice intensity of 0.05 g/dl γ-Glu-Cys-Gly and 0.005 g/dl γ-Glu-Val-Gly), and the test was performed with n=12.

With `CC(C)[C@H](NC(=O)CC[C@H](N)C(=O)O)C(=O)NCC(=O)O` [γ-Glu-Val-Gly] the “Sour taste (intensity of activity on basic tastes)” value (from here on “Sour taste”) ([1]; 0.005 g/dl) was 0.5 points, the “Salty taste (intensity of activity on basic tastes)” value (shortened to “Salty taste”) ([1]; 0.005 g/dl) was 0.5 points and the “Umami (intensity of activity on basic tastes)” value (“Umami” for short) ([1]; 0.005 g/dl) was 0.7 points. The “Sweet taste (intensity of activity on basic tastes)” value (from here on “Sweet taste”) ([1]; 0.005 g/dl) was 0.5 points, the “Sour taste” value ([1]; 0.01 g/dl) was 1.0 points and the “Salty taste” value ([1]; 0.01 g/dl) was 1.0 points. The “Umami” value ([1]; 0.01 g/dl) was 1.5 points, the “Sweet taste” value ([1]; 0.01 g/dl) was 1.0 points and the “Intensity of kokumi: Aftertaste” value ([2]; 0.0005 g/dl) was 3.0 points. The “Intensity of kokumi: First and middle taste” value ([2]; 0.0005 g/dl) was 2.5 points, the “Intensity of kokumi: Aftertaste” value ([2]; 0.001 g/dl) was 4.0 points and the “Intensity of kokumi: First and middle taste” value ([2]; 0.001 g/dl) was 3.5 points. For the same molecule, the “Intensity of kokumi: Aftertaste” value ([2]; 0.01 g/dl) was 5.0 points, the “Intensity of kokumi: First and middle taste” value ([2]; 0.01 g/dl) was 5.0 points and the “Intensity of kokumi: Aftertaste” value ([2]; 0.1 g/dl) was 5.0 points. For the same molecule, the “Intensity of kokumi: First and middle taste” value ([2]; 0.1 g/dl) was 5.0 points, the “Intensity of kokumi: Aftertaste” value ([3]; 0.0005 g/dl) was 3.0 points and the “Intensity of kokumi: First and middle taste” value ([3]; 0.0005 g/dl) was 2.5 points. For the same molecule, the “Intensity of kokumi: Aftertaste” value ([3]; 0.001 g/dl) was 4.0 points, the “Intensity of kokumi: First and middle taste” value ([3]; 0.001 g/dl) was 3.5 points and the “Intensity of kokumi: Aftertaste” value ([3]; 0.01 g/dl) was 5.0 points. The “Intensity of kokumi: First and middle taste” value ([3]; 0.01 g/dl) was 4.5 points, the “Intensity of kokumi: Aftertaste” value ([3]; 0.1 g/dl) was 5.0 points and the “Intensity of kokumi: First and middle taste” value ([3]; 0.1 g/dl) was 5.0 points. For the same molecule, the “Intensity of kokumi: Aftertaste” value ([4]; 0.005 g/dl) was 3.0 points and the “Intensity of kokumi: First and middle taste” value ([4]; 0.005 g/dl) was 3.0 points.
With `N[C@@H](CCC(=O)N[C@@H](CS)C(=O)NCC(=O)O)C(=O)O` [γ-Glu-Cys-Gly, reference compound] the “Sour taste” value ([1]; 0.10 g/dl) was 1.5 points, the “Salty taste” value ([1]; 0.10 g/dl) was 0.2 points and the “Umami” value ([1]; 0.10 g/dl) was 0.7 points. For the same molecule, the “Sweet taste” value ([1]; 0.10 g/dl) was 1.5 points, the “Intensity of kokumi: Aftertaste” value ([2]; 0.01 g/dl) was 2.0 points and the “Intensity of kokumi: First and middle taste” value ([2]; 0.01 g/dl) was 2.0 points. The “Intensity of kokumi: Aftertaste” value ([3]; 0.01 g/dl) was 3.0 points, the “Intensity of kokumi: First and middle taste” value ([3]; 0.01 g/dl) was 3.0 points and the “Intensity of kokumi: Aftertaste” value ([4]; 0.05 g/dl) was 3.0 points. The “Intensity of kokumi: First and middle taste” value ([4]; 0.05 g/dl) was 3.0 points and the “kokumi-imparting activity when used with a known calcium receptor activator or the like such as calcium” value ([4]; conclusion from Table 13) was “can have improved kokumi-imparting activity”.
